According to PMC11194091 (2024):

Key:
[1] = system: G2C4 RNA (RNA, triplex) GGCCCC; assay: DSC; settings: 100 mM NaCl; 10 mM sodium cacodylate pH 6.0; 300 μM ANP77, 300 μM RNA; triplex melting 38.1 to 41.5; derived from two Tm
[2] = system: G2C4 RNA (RNA, triplex) GGCCCC; assay: ITC; settings: 100 mM NaCl; 10 mM sodium cacodylate pH 6.0, 25°C; one set of sites model
[3] = system: G2C4 RNA (RNA, triplex) GGCCCC; assay: X-ray crystal structure; settings: 80 mM NaCl; 40 mM sodium cacodylate pH 6.0, 45% MPD, 12 mM spermine, 19°C; 1.1 Å
[4] = system: RNA oligomer having five G2C4 repeats (RNA, repeat) GGCCCCGGCCCCGGCCCCGGCCCCGGCCCC; assay: circular dichroism; settings: 100 mM NaCl; 10 mM sodium cacodylate pH 7.0, room temperature; 2.5 μM RNA, 25 μM ANP77
[5] = system: (G2C4)2 (RNA, repeat) GGCCCCGGCCCC; assay: ITC; settings: 100 mM NaCl; 10 mM sodium cacodylate pH 6.0, 25°C; sequential binding sites model; site 1 of 2
[6] = system: (G2C4)2 (RNA, repeat) GGCCCCGGCCCC; assay: circular dichroism; settings: 100 mM NaCl; 10 mM sodium cacodylate pH 7.0, room temperature; 2.5 μM RNA, 25 μM ANP77
[7] = system: G2C4 RNA (RNA, triplex) GGCCCC; assay: CSI-TOF mass spectrometry; settings: 250 mM ammonium acetate; water/methanol 8:2, -10°C spray; 20 μM RNA, 50 μM ANP77; complexes with double-stranded form

SMILES: NCCCNC(=O)C(Cc1ccc2ccc(N)nc2n1)Cc1ccc2ccc(N)nc2n1
- ΔTm1 (shift in Tm1) [1]: 3.4 °C
- Kd [2]: 7.9 ± 1.0 µM
- binding [3]: yes
- binding [4]: yes
- Kd [5]: 0.976 ± 0.377 µM
- binding [6]: yes
- binding [7]: yes
